Measurements published in ChEMBL document CHEMBL3885861, “Open TG-GATES”.

Species on record: Rattus norvegicus
Assay: Open TG-GATES - Regimen: Single
Format: toxicity, organism-based, Sprague-Dawley
Parameters: regimen Single, gender Male, age 6 weeks
Conditions: in vivo, po, 400 mg/kg, route gavage, dose level High; for APTT / Bas / Eos / Fbg / Hb / Ht / Lym / MCH / MCHC / MCV / Mono / Neu / PT / Plat / RBC / Ret / WBC: tissue Blood; for KIDNEY_L / KIDNEY_R / KIDNEY_TOTAL: tissue Kidney; for LIVER: tissue Liver; for A/G / ALP / ALT / AST / BUN / CRE / Ca / Cl / DBIL / GLC / IP / K / LDH / Na / PL / RALB / TBIL / TC / TG / TP / gamma-GTP: tissue Plasma

`COc1ccc(Cc2nccc3cc(OC)c(OC)cc23)cc1OC` [PAPAVERINE] was tested, and the TERMINAL_BW (3 h) was 228.2 g, the APTT (3 h) was 23.4 s and the Bas (3 h) was 0%. It also gave an Eos (3 h) of 1%, a Fbg (3 h) of 306.8 mg/dL and a Hb (3 h) of 13.4 g/dL. The Ht (3 h) was 40.3%, the Lym (3 h) was 79% and the MCH (3 h) was 20.7 pg. For the same molecule, the MCHC (3 h) was 33.3%, the MCV (3 h) was 62 fL and the Mono (3 h) was 2.4%. It also gave a Neu (3 h) of 16.2%, a PT (3 h) of 15.7 s and a Plat (3 h) of 119 x10_4/uL. The RBC (3 h) was 649.8 x10_4/ul, the Ret (3 h) was 7.4% and the WBC (3 h) was 64.1 x10_2/uL. It also gave a KIDNEY_L (3 h) of 1 g, a KIDNEY_R (3 h) of 1 g and a KIDNEY_TOTAL (3 h) of 2 g. The LIVER (3 h) was 9.9 g, the A/G (3 h) was 1.2 and the ALP (3 h) was 1181 IU/L. The ALT (3 h) was 39 IU/L, the AST (3 h) was 66.8 IU/L and the BUN (3 h) was 11.4 mg/dL. It also gave a CRE (3 h) of 0.1 mg/dL, a Ca (3 h) of 10.8 mg/dL and a Cl (3 h) of 107.2 meq/L. For the same molecule, the DBIL (3 h) was 0 mg/dL, the GLC (3 h) was 199.4 mg/dL and the IP (3 h) was 9.7 mg/dL. It also gave a K (3 h) of 4.1 meq/L, an LDH (3 h) of 182 IU/L and a Na (3 h) of 140.2 meq/L. The PL (3 h) was 124 mg/dL, the RALB (3 h) was 2.9 g/dL and the TBIL (3 h) was 0.014 mg/dL. It also gave a TC (3 h) of 75.2 mg/dL, a TG (3 h) of 34 mg/dL and a TP (3 h) of 5.4 g/dL. The gamma-GTP (3 h) was 2.4 IU/L, the TERMINAL_BW (6 h) was 223.8 g and the APTT (6 h) was 22 s. It also gave a Bas (6 h) of 0%, an Eos (6 h) of 0.8% and a Fbg (6 h) of 310.8 mg/dL. The Hb (6 h) was 13.1 g/dL, the Ht (6 h) was 40% and the Lym (6 h) was 78%. For the same molecule, the MCH (6 h) was 20.6 pg, the MCHC (6 h) was 32.9% and the MCV (6 h) was 62.7 fL. For the same molecule, the Mono (6 h) was 3.6%, the Neu (6 h) was 16.6% and the PT (6 h) was 16 s. The Plat (6 h) was 119.2 x10_4/uL, the RBC (6 h) was 639 x10_4/ul and the Ret (6 h) was 7.8%. It also gave a WBC (6 h) of 84 x10_2/uL, a KIDNEY_L (6 h) of 1 g and a KIDNEY_R (6 h) of 1 g. For the same molecule, the KIDNEY_TOTAL (6 h) was 1.9 g, the LIVER (6 h) was 9.2 g and the A/G (6 h) was 1.2. For the same molecule, the ALP (6 h) was 1322.6 IU/L, the ALT (6 h) was 36 IU/L and the AST (6 h) was 73.6 IU/L. For the same molecule, the BUN (6 h) was 7.6 mg/dL, the CRE (6 h) was 0.1 mg/dL and the Ca (6 h) was 11.2 mg/dL. It also gave a Cl (6 h) of 107.4 meq/L, a DBIL (6 h) of 0.006 mg/dL and a GLC (6 h) of 178.4 mg/dL. For the same molecule, the IP (6 h) was 10.2 mg/dL, the K (6 h) was 4.3 meq/L and the LDH (6 h) was 151.4 IU/L. For the same molecule, the Na (6 h) was 140.6 meq/L, the PL (6 h) was 125.2 mg/dL and the RALB (6 h) was 2.9 g/dL. It also gave a TBIL (6 h) of 0.036 mg/dL, a TC (6 h) of 75 mg/dL and a TG (6 h) of 38.4 mg/dL. It also gave a TP (6 h) of 5.3 g/dL, a gamma-GTP (6 h) of 2 IU/L and a TERMINAL_BW (9 h) of 221.7 g. It also gave an APTT (9 h) of 23 s, a Bas (9 h) of 0% and an Eos (9 h) of 0.8%. It also gave a Fbg (9 h) of 313.2 mg/dL, a Hb (9 h) of 13.5 g/dL and a Ht (9 h) of 40.5%. It also gave a Lym (9 h) of 75%, an MCH (9 h) of 20.8 pg and an MCHC (9 h) of 33.3%. The MCV (9 h) was 62.5 fL, the Mono (9 h) was 2.2% and the Neu (9 h) was 21%. It also gave a PT (9 h) of 16.2 s, a Plat (9 h) of 120.5 x10_4/uL and an RBC (9 h) of 648.2 x10_4/ul. It also gave a Ret (9 h) of 7.3%, a WBC (9 h) of 73.1 x10_2/uL and a KIDNEY_L (9 h) of 1 g. It also gave a KIDNEY_R (9 h) of 1 g, a KIDNEY_TOTAL (9 h) of 2 g and an LIVER (9 h) of 8.5 g. The A/G (9 h) was 1.3, the ALP (9 h) was 1235.8 IU/L and the ALT (9 h) was 26.8 IU/L. The AST (9 h) was 64 IU/L, the BUN (9 h) was 7.8 mg/dL and the CRE (9 h) was 0.1 mg/dL. The Ca (9 h) was 10.9 mg/dL, the Cl (9 h) was 108.6 meq/L and the DBIL (9 h) was 0.008 mg/dL. The GLC (9 h) was 180.2 mg/dL, the IP (9 h) was 9.5 mg/dL and the K (9 h) was 4.3 meq/L. It also gave an LDH (9 h) of 160 IU/L, a Na (9 h) of 139.8 meq/L and a PL (9 h) of 123.2 mg/dL. The RALB (9 h) was 2.9 g/dL, the TBIL (9 h) was 0.036 mg/dL and the TC (9 h) was 68.2 mg/dL. It also gave a TG (9 h) of 33.4 mg/dL, a TP (9 h) of 5.3 g/dL and a gamma-GTP (9 h) of 1.6 IU/L. For the same molecule, the TERMINAL_BW (24 h) was 240 g, the APTT (24 h) was 21.2 s and the Bas (24 h) was 0%. For the same molecule, the Eos (24 h) was 0.8%, the Fbg (24 h) was 339.6 mg/dL and the Hb (24 h) was 13 g/dL. The Ht (24 h) was 39%, the Lym (24 h) was 78.2% and the MCH (24 h) was 20.8 pg. For the same molecule, the MCHC (24 h) was 33.4%, the MCV (24 h) was 62.1 fL and the Mono (24 h) was 2.6%. The Neu (24 h) was 17.2%, the PT (24 h) was 15.7 s and the Plat (24 h) was 113.2 x10_4/uL. It also gave an RBC (24 h) of 627.8 x10_4/ul, a Ret (24 h) of 6.6% and a WBC (24 h) of 86.7 x10_2/uL. It also gave a KIDNEY_L (24 h) of 1 g, a KIDNEY_R (24 h) of 1 g and a KIDNEY_TOTAL (24 h) of 2 g. It also gave an LIVER (24 h) of 11.4 g, an A/G (24 h) of 1.3 and an ALP (24 h) of 1398.4 IU/L. For the same molecule, the ALT (24 h) was 41.2 IU/L, the AST (24 h) was 66.6 IU/L and the BUN (24 h) was 14 mg/dL. For the same molecule, the CRE (24 h) was 0.1 mg/dL, the Ca (24 h) was 10.9 mg/dL and the Cl (24 h) was 106 meq/L. The DBIL (24 h) was 0 mg/dL, the GLC (24 h) was 186.8 mg/dL and the IP (24 h) was 7.5 mg/dL. It also gave a K (24 h) of 4 meq/L, an LDH (24 h) of 153.2 IU/L and a Na (24 h) of 143.4 meq/L. For the same molecule, the PL (24 h) was 149.8 mg/dL, the RALB (24 h) was 3.1 g/dL and the TBIL (24 h) was 0.008 mg/dL. It also gave a TC (24 h) of 82 mg/dL, a TG (24 h) of 125.8 mg/dL and a TP (24 h) of 5.4 g/dL. It also gave a gamma-GTP (24 h) of 2 IU/L.
